Measurements as given in US12233105B1, “Methods for storing and warming purified corticotropin compositions” (ANI Pharmaceuticals, Inc., priority 2022, dated 2025).

Tested on: THP-1 Blue, Raw Blue, HEK-blue hTLR3, HEK-Blue hTLR4, HEK-Blue hNOD2
Assay: Innate immune response activation assays in TLR/NOD2 reporter cell lines
Assay type: cell-based
Details: 5 cell lines covering TLR and NOD2 expression; 3 PPQ lots; highest drug substance concentration tested 10 μg/mL
Description: Method development, qualification, and testing for activation of innate immune response was performed. The innate immune assays performed compared 3 PPQ lots. The work was conducted using 5 cell lines to cover TLR and NOD2 expression (THP-1 Blue, Raw Blue, HEK-blue hTLR3, HEK-Blue hTLR4, HEK-Blue hNOD2). […] The highest drug substance concentration tested was 10 μg/mL. A dose of the sterile preparation of purified corticotropin at 80 U is, equivalent to approximately 1 mg of drug substance per total body weight of subject.

Structure (SMILES) | dose response for activation of innate immune response
CCCc1nc2c(N)nc3ccccc3c2s1 [CL075] | robust dose responses
CC(=O)N[C@@H]1[C@@H](O[C@H](C)C(=O)N[C@@H](C)C(=O)N[C@H](CCC(=O)O)C(N)=O)[C@H](O)[C@@H](CO)O[C@H]1O [MDP] | robust dose responses
